Assay results from patent US4071559A, “Pharmaceutically active 2-omega-aminoalkoxydiphenyls” (Mitsubishi Chemical Industries Limited, priority 1975, dated 1978).
Counter-ions that a name gives are not always drawn.

Assays:
[1] = tested on: reserpine induced hypothermia; test: Antagonism of reserpine induced hypothermia in mice (antireserpine / antidepressant activity); format: in vivo; conditions: i.p.; for Antireserpine activity, Relative Potency: reserpine 5 mg/kg i.p., Amitriptyline = 1
Protocol: (§1) The compounds were administered intraperitoneally and the activities of the compounds were compared with those of Amitriptyline.

[2] = tested on: electroshock induced tonic extensor; test: Antagonism of electroshock induced tonic extensor (anticonvulsant activity); format: in vivo; conditions: Mus musculus, ip; mice; dose which prevents 50% of response
neurological deficit = test: Traction test (neurological deficit; muscle relaxant action; CNS depressant activity); format: in vivo; conditions: mice; for ED50: Mus musculus, ip, traction test
[3] = tested on: spontaneous motor activity; test: Spontaneous motor activity by ANIMEX apparatus (CNS depressant activity); format: in vivo; conditions: Mus musculus, ip, mice, i.p., read-out: Spontaneous Motor Activity Depression ED50
tremorine induced tremor = test: Tremorine induced tremor in mice (central anticholinergic effect); format: in vivo; conditions: for ED50: Mus musculus, ip, tremorine induced tremor, read-out: Antitremorine Effect ED50
Protocol: as §1

in vivo = conditions: mouse, ip
mice = conditions: i.p., compared with Amitriptyline

| Structure (SMILES) | Antireserpine activity, Relative Potency [1] | ED50 [2] | ED50 (neurological deficit) | ED50 [3] | ED50 (tremorine induced tremor) | LD50 (in vivo) | antireserpine activity (in words) ([1]; compared with Amitriptyline) | CNS depressant action (in words) (neurological deficit; i.p., traction test and spontaneous motor activity) | anticholinergic action (in words) (tremorine induced tremor; i.p., compared with Amitriptyline) | toxicity (in words) (mice) |
| --- | --- | --- | --- | --- | --- | --- | --- | --- | --- | --- |
| NCCCCOc1ccccc1-c1ccccc1 [2-(4-aminobutoxy)diphenyl hydrochloride] | 0.59 | 14 mg/kg | 50 mg/kg | 40 mg/kg | 60 mg/kg | 137 mg/kg | – | – | – | – |
| CN(C)CCCCOc1ccccc1-c1ccccc1 [2-(4-dimethylaminobutoxy)diphenyl hydrochloride] | 0.45 | – | – | – | – | 100 mg/kg | – | – | – | – |
| CNCCCCOc1ccccc1-c1ccccc1 [2-(4-methylaminobutoxy)diphenyl hydrochloride] | 0.99 | 14 mg/kg | 40 mg/kg | 30 mg/kg | 20 mg/kg | 78 mg/kg | comparable to that of Amitriptyline | weak | weak | low toxicity |
